Laboratory results as given in publication PMC9863297, “Intermolecular Interactions of Edaravone in Aqueous Solutions of Ethaline and Glyceline Inferred from Experiments and Quantum Chemistry Computations” (Molecules, 2023).
Converted amounts (≈) assume the structure as drawn. Like-named read-outs stand apart in the source and are kept apart here.

Test: Edaravone solubility, slurry/shake-flask method with spectrophotometric determination at 243 nm
Assay type: physicochemical
Conditions: for solubility at 24 h: read-out: cE solubility concentration; for volume of saturated solution containing the recommended 60 mg: solubility at 298.15 K
Protocol: The first step in obtaining a calibration curve was the preparation of a stock solution of edaravone with a concentration of 2.3 mg/mL. This initial solution was successfully diluted in 10 mL volumetric flasks with methanol and the obtained solutions with decreasing concentrations were measured spectrophotometrically. […] Three separate curves were obtained, and the final curve resulted from averaging. […] The limits of detection (LOD) and quantification (LOQ) were calculated as 5.899∙10^−4 mg/mL and 1.770∙10^−3 mg/mL, respectively.
All of the studied deep eutectic solvents included choline chloride, while the second constituent was either glycerol or ethylene glycol. In order to prepare a DES formulation, choline chloride was mixed with the second compound in different molar ratios in sealed test tubes and placed in a water bath at 363.15 K until the formation of a uniform solution. The obtained DES were either used in their neat form or water was added to them in different proportions in order to form binary systems.
During the next stage, edaravone was added in excess amounts to the test tubes containing both neat DES and binary mixtures, which enabled us to obtain its saturated solutions. Samples prepared in such a manner were placed in an Orbital Shaker Incubator ES-20/60 from Biosan (Riga, Latvia) and incubated for 24 h at different temperatures, namely 298.15 K, 303.15 K, 308.15 K and 313.15 K. The temperature adjustment accuracy was 0.1 K and its variability in a 24 h cycle was ±0.5 K. Apart from heating, all of the samples were mixed at 60 rev/min. The increased viscosity and density of DES systems required the samples to be centrifuged at 1000 rev/min for 5 min with the use of EBA 20 centrifuge from Hettich (Tuttlingen, Germany) enabling the undissolved precipitate to remain on the bottom of the test tubes. Next, the samples were filtered using a syringe equipped with a PTFE syringe filer with 0.22 µm pore size. In order to avoid precipitation, the test tubes, syringes and filters were initially heated at a temperature equal to the one of the handled samples. Finally, small amounts of the obtained filtrate were transferred to test tubes filled with methanol and the diluted samples were measured spectrophotometrically. Additionally, for the determination of the mole fractions of edaravone, the density of the samples was measured by weighing a fixed volume of the solution in 10 mL volumetric flasks.
For determining the solubility of edaravone in the studied systems, the samples prepared, as described above, were measured spectrophotometrically using an A360 spectrophotometer from AOE Instruments (Shanghai, China). The spectra were recorded in the 190 nm to 500 nm wavelength range and 1 nm resolution. Methanol was used for the initial calibration of the spectrophotometer and for the dilution of the measured samples, which was conducted in order for the absorbance values to remain below 2.5. The absorbance values at 243 nm were taken into account and based on the calibration curve prepared earlier, the concentration of edaravone in the samples was determined, followed by its mole fractions. The values were averaged from three separate measurements.

CC1=NN(c2ccccc2)C(=O)C1 [edaravone, 5-methyl-2-phenyl-4H-pyrazol-3-one]
xE mole fraction solubility (neat DES choline chloride + glycerol (GLE) 1:2 molar ratio (x*GLE = 1.0), 303.15 K): 1606.43 (±50.52) mole fraction ∙10^4 | xE mole fraction solubility (neat DES choline chloride + glycerol (GLE) 1:2 molar ratio (x*GLE = 1.0), 308.15 K): 2151.57 (±64.56) mole fraction ∙10^4 | xE mole fraction solubility (neat DES choline chloride + glycerol (GLE) 1:2 molar ratio (x*GLE = 1.0), 313.15 K): 2991.42 (±64.1) mole fraction ∙10^4 | xE mole fraction solubility (neat DES choline chloride + glycerol (GLE) 1:4 molar ratio, 298.15 K): 926.44 (±23.62) mole fraction ∙10^4 | xE mole fraction solubility (neat DES choline chloride + glycerol (GLE) 1:4 molar ratio, 303.15 K): 1321.28 (±36.17) mole fraction ∙10^4 | xE mole fraction solubility (neat DES choline chloride + glycerol (GLE) 1:4 molar ratio, 308.15 K): 1861.97 (±40.45) mole fraction ∙10^4 | xE mole fraction solubility (neat DES choline chloride + glycerol (GLE) 1:4 molar ratio, 313.15 K): 2739.72 (±65.05) mole fraction ∙10^4 | solubility at 24 h (neat deep eutectic solvent, 25 °C, organic solvent or mixture, thermodynamic from solid, neat DES choline chloride + ethylene glycol (ETA) 1:1 molar ratio, 298.15 K): 190 mg/mL | solubility at 24 h (neat deep eutectic solvent, 25 °C, organic solvent or mixture, thermodynamic from solid, neat DES choline chloride + ethylene glycol (ETA) 1:2 molar ratio (x*ETA = 1.0), 298.15 K): 303 mg/mL | solubility at 24 h (neat deep eutectic solvent, 25 °C, organic solvent or mixture, thermodynamic from solid, neat DES choline chloride + ethylene glycol (ETA) 1:4 molar ratio, 298.15 K): 280 mg/mL | solubility at 24 h (neat deep eutectic solvent, 25 °C, organic solvent or mixture, thermodynamic from solid, neat DES choline chloride + glycerol (GLE) 1:1 molar ratio, 298.15 K): 138 mg/mL | solubility at 24 h (neat deep eutectic solvent, 30 °C, organic solvent or mixture, thermodynamic from solid, neat DES choline chloride + ethylene glycol (ETA) 1:1 molar ratio, 303.15 K): 252 mg/mL | solubility at 24 h (neat deep eutectic solvent, 30 °C, organic solvent or mixture, thermodynamic from solid, neat DES choline chloride + ethylene glycol (ETA) 1:2 molar ratio (x*ETA = 1.0), 303.15 K): 392 mg/mL | solubility at 24 h (neat deep eutectic solvent, 30 °C, organic solvent or mixture, thermodynamic from solid, neat DES choline chloride + ethylene glycol (ETA) 1:4 molar ratio, 303.15 K): 347 mg/mL | solubility at 24 h (neat deep eutectic solvent, 35 °C, organic solvent or mixture, thermodynamic from solid, neat DES choline chloride + ethylene glycol (ETA) 1:1 molar ratio, 308.15 K): 360 mg/mL | solubility at 24 h (neat deep eutectic solvent, 35 °C, organic solvent or mixture, thermodynamic from solid, neat DES choline chloride + ethylene glycol (ETA) 1:2 molar ratio (x*ETA = 1.0), 308.15 K): 499 mg/mL | solubility at 24 h (neat deep eutectic solvent, 35 °C, organic solvent or mixture, thermodynamic from solid, neat DES choline chloride + ethylene glycol (ETA) 1:4 molar ratio, 308.15 K): 467 mg/mL | solubility at 24 h (neat deep eutectic solvent, 40 °C, organic solvent or mixture, thermodynamic from solid, neat DES choline chloride + ethylene glycol (ETA) 1:1 molar ratio, 313.15 K): 484 mg/mL | solubility at 24 h (neat deep eutectic solvent, 40 °C, organic solvent or mixture, thermodynamic from solid, neat DES choline chloride + ethylene glycol (ETA) 1:2 molar ratio (x*ETA = 1.0), 313.15 K): 593 mg/mL | solubility at 24 h (neat deep eutectic solvent, 40 °C, organic solvent or mixture, thermodynamic from solid, neat DES choline chloride + ethylene glycol (ETA) 1:4 molar ratio, 313.15 K): 602 mg/mL | xE mole fraction solubility (neat water (x*DES = 0.0), 298.15 K): 1.73(±0.01) mole fraction ∙10^4 | xE mole fraction solubility (neat water (x*DES = 0.0), 303.15 K): 1.78(±0.01) mole fraction ∙10^4 | xE mole fraction solubility (neat water (x*DES = 0.0), 308.15 K): 1.84(±0.02) mole fraction ∙10^4 | xE mole fraction solubility (neat water (x*DES = 0.0), 313.15 K): 1.93(±0.01) mole fraction ∙10^4 | mole fraction solubility ratio, ethylene glycol system vs glycerol system (optimal 1:2 composition, average over temperatures): 1.34 times | volume of saturated solution containing the recommended 60 mg (optimal aqueous composition ETA): 0.14 mL | volume of saturated solution containing the recommended 60 mg (optimal aqueous composition GLE): 0.18 mL | solubility increase in optimal binary composition compared to neat DES (systems with ethylene glycol, x*DES = 0.6, average): 17% | xE mole fraction solubility (water + ETA (ChCl:EG 1:2), x*ETA = 0.2, 298.15 K): 454.10(±5.48) mole fraction ∙10^4 | xE mole fraction solubility (water + ETA (ChCl:EG 1:2), x*ETA = 0.2, 303.15 K): 574.18(±8.89) mole fraction ∙10^4 | xE mole fraction solubility (water + ETA (ChCl:EG 1:2), x*ETA = 0.2, 308.15 K): 742.26(±18.45) mole fraction ∙10^4 | xE mole fraction solubility (water + ETA (ChCl:EG 1:2), x*ETA = 0.2, 313.15 K): 890.33(±10.84) mole fraction ∙10^4 | xE mole fraction solubility (water + ETA (ChCl:EG 1:2), x*ETA = 0.4, 298.15 K): 1353.93(±5.00) mole fraction ∙10^4 | xE mole fraction solubility (water + ETA (ChCl:EG 1:2), x*ETA = 0.4, 303.15 K): 1819.02(±41.45) mole fraction ∙10^4 | xE mole fraction solubility (water + ETA (ChCl:EG 1:2), x*ETA = 0.4, 308.15 K): 2386.29(±27.09) mole fraction ∙10^4 | xE mole fraction solubility (water + ETA (ChCl:EG 1:2), x*ETA = 0.4, 313.15 K): 2954.32(±49.04) mole fraction ∙10^4 | xE mole fraction solubility (water + ETA (ChCl:EG 1:2), x*ETA = 0.5, 298.15 K): 1754.56(±31.02) mole fraction ∙10^4 | xE mole fraction solubility (water + ETA (ChCl:EG 1:2), x*ETA = 0.5, 303.15 K): 2316.25(±38.27) mole fraction ∙10^4 | xE mole fraction solubility (water + ETA (ChCl:EG 1:2), x*ETA = 0.5, 308.15 K): 3073.71(±53.04) mole fraction ∙10^4 | xE mole fraction solubility (water + ETA (ChCl:EG 1:2), x*ETA = 0.5, 313.15 K): 3822.75(±61.93) mole fraction ∙10^4 | xE mole fraction solubility (water + ETA (ChCl:EG 1:2), x*ETA = 0.6, 298.15 K): 1934.93(±34.18) mole fraction ∙10^4 | xE mole fraction solubility (water + ETA (ChCl:EG 1:2), x*ETA = 0.6, 303.15 K): 2552.36(±52.56) mole fraction ∙10^4 | xE mole fraction solubility (water + ETA (ChCl:EG 1:2), x*ETA = 0.6, 308.15 K): 3306.79(±48.29) mole fraction ∙10^4 | xE mole fraction solubility (water + ETA (ChCl:EG 1:2), x*ETA = 0.6, 313.15 K): 3982.72(±70.26) mole fraction ∙10^4 | xE mole fraction solubility (water + ETA (ChCl:EG 1:2), x*ETA = 0.8, 298.15 K): 1713.96(±31.15) mole fraction ∙10^4 | xE mole fraction solubility (water + ETA (ChCl:EG 1:2), x*ETA = 0.8, 303.15 K): 2241.64(±42.78) mole fraction ∙10^4 | xE mole fraction solubility (water + ETA (ChCl:EG 1:2), x*ETA = 0.8, 308.15 K): 2989.20(±42.33) mole fraction ∙10^4 | xE mole fraction solubility (water + ETA (ChCl:EG 1:2), x*ETA = 0.8, 313.15 K): 3720.80(±28.54) mole fraction ∙10^4 | xE mole fraction solubility (water + GLE (ChCl:GL 1:2), x*GLE = 0.2, 298.15 K): 235.51(±9.67) mole fraction ∙10^4 | xE mole fraction solubility (water + GLE (ChCl:GL 1:2), x*GLE = 0.2, 303.15 K): 309.2(±4.30) mole fraction ∙10^4 | xE mole fraction solubility (water + GLE (ChCl:GL 1:2), x*GLE = 0.2, 308.15 K): 435.07(±4.04) mole fraction ∙10^4 | xE mole fraction solubility (water + GLE (ChCl:GL 1:2), x*GLE = 0.2, 313.15 K): 564.61(±7.05) mole fraction ∙10^4 | xE mole fraction solubility (water + GLE (ChCl:GL 1:2), x*GLE = 0.4, 298.15 K): 743.88(±5.92) mole fraction ∙10^4 | xE mole fraction solubility (water + GLE (ChCl:GL 1:2), x*GLE = 0.4, 303.15 K): 1116.64(±2.70) mole fraction ∙10^4 | xE mole fraction solubility (water + GLE (ChCl:GL 1:2), x*GLE = 0.4, 308.15 K): 1444.07(±14.86) mole fraction ∙10^4 | xE mole fraction solubility (water + GLE (ChCl:GL 1:2), x*GLE = 0.4, 313.15 K): 2014.09(±17.34) mole fraction ∙10^4 | xE mole fraction solubility (water + GLE (ChCl:GL 1:2), x*GLE = 0.5, 298.15 K): 1121.47(±10.85) mole fraction ∙10^4 | xE mole fraction solubility (water + GLE (ChCl:GL 1:2), x*GLE = 0.5, 303.15 K): 1673.69(±20.61) mole fraction ∙10^4 | xE mole fraction solubility (water + GLE (ChCl:GL 1:2), x*GLE = 0.5, 308.15 K): 2236.41(±28.00) mole fraction ∙10^4 | xE mole fraction solubility (water + GLE (ChCl:GL 1:2), x*GLE = 0.5, 313.15 K): 3065.17(±55.82) mole fraction ∙10^4 | xE mole fraction solubility (water + GLE (ChCl:GL 1:2), x*GLE = 0.6, 298.15 K): 1450.22(±11.26) mole fraction ∙10^4 | xE mole fraction solubility (water + GLE (ChCl:GL 1:2), x*GLE = 0.6, 303.15 K): 2089.77(±58.10) mole fraction ∙10^4 | xE mole fraction solubility (water + GLE (ChCl:GL 1:2), x*GLE = 0.6, 308.15 K): 2723.73(±61.99) mole fraction ∙10^4 | xE mole fraction solubility (water + GLE (ChCl:GL 1:2), x*GLE = 0.6, 313.15 K): 3567.08(±42.51) mole fraction ∙10^4 | xE mole fraction solubility (water + GLE (ChCl:GL 1:2), x*GLE = 0.8, 298.15 K): 1305.70(±26.15) mole fraction ∙10^4 | xE mole fraction solubility (water + GLE (ChCl:GL 1:2), x*GLE = 0.8, 303.15 K): 1852.98(±39.43) mole fraction ∙10^4 | xE mole fraction solubility (water + GLE (ChCl:GL 1:2), x*GLE = 0.8, 308.15 K): 2525.56(±24.65) mole fraction ∙10^4 | xE mole fraction solubility (water + GLE (ChCl:GL 1:2), x*GLE = 0.8, 313.15 K): 3420.95(±31.16) mole fraction ∙10^4 | solubility at 24 h (water, neat water (x*DES = 0.0), 298.15 K): 1.72 mg/mL (≈ 9.87 mM) | solubility at 24 h (water, neat water (x*DES = 0.0), 303.15 K): 1.79 mg/mL (≈ 10.3 mM) | solubility at 24 h (water, neat water (x*DES = 0.0), 308.15 K): 1.87 mg/mL (≈ 10.7 mM) | solubility at 24 h (water, neat water (x*DES = 0.0), 313.15 K): 1.96 mg/mL (≈ 11.3 mM)
